Experimental data from article PMC406516 (BMC Clinical Pharmacology, 2004).
Each block holds one compound with its values, some of them ahead of it.

What was measured:
[1] = biological target: Pharmaceutical-grade albumin Pharmacia & Upjohn (Homo sapiens, UniProt P02768)
Human serum = Human serum (Homo sapiens, UniProt P02768); assay: Drug binding by ultrafiltration in native human serum
[2] = biological target: Pharmaceutical-grade albumin Octapharma (Homo sapiens, UniProt P02768); assay: Drug binding by ultrafiltration in pharmaceutical-grade albumin from Octapharma; conditions: for n1 (specific binding sites): Final product
Chain of Pharmaceutical-grade albumin Octapharma (P02768 25-609): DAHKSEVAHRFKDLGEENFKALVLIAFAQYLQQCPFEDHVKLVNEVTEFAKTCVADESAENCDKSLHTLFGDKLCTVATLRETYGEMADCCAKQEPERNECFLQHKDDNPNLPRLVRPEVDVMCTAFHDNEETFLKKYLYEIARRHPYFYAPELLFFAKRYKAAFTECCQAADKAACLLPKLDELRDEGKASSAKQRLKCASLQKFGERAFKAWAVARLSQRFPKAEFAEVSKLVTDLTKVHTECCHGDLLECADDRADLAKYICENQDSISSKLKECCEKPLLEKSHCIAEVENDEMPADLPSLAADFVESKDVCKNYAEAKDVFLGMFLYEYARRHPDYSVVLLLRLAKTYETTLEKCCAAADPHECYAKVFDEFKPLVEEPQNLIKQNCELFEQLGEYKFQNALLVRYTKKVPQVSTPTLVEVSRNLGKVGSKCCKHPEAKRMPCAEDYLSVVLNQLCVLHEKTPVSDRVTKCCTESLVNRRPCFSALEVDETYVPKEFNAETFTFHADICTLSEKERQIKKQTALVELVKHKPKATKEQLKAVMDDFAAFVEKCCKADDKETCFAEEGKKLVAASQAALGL

[3] = biological target: Pharmaceutical-grade albumin Baxter/Immuno (Homo sapiens, UniProt P02768)
Chain of Pharmaceutical-grade albumin Baxter/Immuno (P02768 25-609): as above

[4] = biological target: albumin solutions from Baxter/Immuno, Octapharma, and Pharmacia & Upjohn (Homo sapiens, UniProt P02768)
Chain of albumin solutions from Baxter/Immuno, Octapharma, and Pharmacia & Upjohn (P02768 25-609): as above

[5] = biological target: in-process albumin (Octapharma, before addition of stabilisers and final heating) (Homo sapiens, UniProt P02768); assay: Drug binding by ultrafiltration in in-process albumin from Octapharma; conditions: mean (SD), 5 experiments
Chain of in-process albumin (Octapharma, before addition of stabilisers and final heating) (P02768 25-609): as above

albumin = conditions: cited from earlier work
[6] = biological target: defatted human serum albumin (Sigma albumin) (Homo sapiens, UniProt P02768); assay: Drug binding by ultrafiltration in Sigma albumin solution; conditions: isolated protein, pH 7.4
Chain of defatted human serum albumin (Sigma albumin) (P02768 25-609): as above

[7] = biological target: Sigma albumin and native human serum (Homo sapiens, UniProt P02768); conditions: relative to K1 of naproxen; summary of Table 2
Chain of Sigma albumin and native human serum (P02768 25-609): as above

[8] = Pharmacia & Upjohn albumin 0.615 mmol/L, Scatchard, mean (SD), 5 experiments
[9] = human serum, Scatchard, mean (SD), 5 experiments
[10] = charcoal treated, mean (SD), 5 experiments
[11] = Octapharma albumin 0.615 mmol/L, Scatchard, mean (SD), 5 experiments
[12] = Baxter/Immuno albumin 0.615 mmol/L, Scatchard, mean (SD), 5 experiments
[13] = human, isolated protein, pH 7.4

Chain of Human serum (P02768 25-609): as above
Chain of Pharmaceutical-grade albumin Pharmacia & Upjohn (P02768 25-609): as above

Non Specific binding n2 (number of binding sites) [1, 8]: 3.8 (0.3)
Non Specific binding n2 (number of binding sites) (Human serum; [9]): 3.9 (0.2)
Specific binding n1 (number of binding sites) (Human serum; [9]): 1.0 (0.1)
n1 (specific binding sites) [2, 10]: 1.1 (0.1)
n1 (specific binding sites) ([2]; charcoal treated, mean (SD), 5 experiments, listed as naproxen): 1.1 ± 0.1
Non Specific binding n2 (number of binding sites) [2, 11]: 4.0 (0.3)
Non Specific binding n2 (number of binding sites) [3, 12]: 3.8 (0.2)
specific binding ([4]; albumin solutions from Baxter/Immuno, Octapharma, and Pharmacia & Upjohn): abolished
Structure (SMILES): COc1ccc2cc([C@H](C)C(=O)O)ccc2c1 [Naproxen, naproxen]

Structure (SMILES): C[C@H]1O[C@@H](O[C@H]2[C@@H](O)C[C@H](O[C@H]3[C@@H](O)C[C@H](O[C@H]4CC[C@@]5(C)[C@H](CC[C@@H]6[C@@H]5CC[C@]5(C)[C@@H](C7=CC(=O)OC7)CC[C@]65O)C4)O[C@@H]3C)O[C@@H]2C)C[C@H](O)[C@@H]1O [Digitoxin, digitoxin]
Specific binding n1 (number of binding sites) [1, 8]: 1.4 (0.3)
fraction unbound at 30 min [1, 13]: 0.115
n1 (specific binding sites) ([5]; charcoal treated): 0.8 (0.03)
n1 (specific binding sites) ([5]; not charcoal treated): 0.8 (0.03)
albumin-bound (albumin): more than 95%
fraction unbound at 30 min [6]: 0.051
K1 higher than that of naproxen [7]: ~100 times
Specific binding n1 (number of binding sites) (Human serum; [9]): 1.8 (0.5)
fraction unbound at 30 min (Human serum; human, serum, pH 7.4): 0.049
n1 (specific binding sites) [2, 10]: 1.3 (0.2)
n1 (specific binding sites) ([2]; not charcoal treated, mean (SD), 5 experiments): 1.1 (0.1)
Specific binding n1 (number of binding sites) [2, 11]: 0.9 (0.03)
fraction unbound at 30 min [2, 13]: 0.1
Specific binding n1 (number of binding sites) [3, 12]: 1.1 (0.1)
fraction unbound at 30 min [3, 13]: 0.111
free fraction higher than in native human serum and Sigma albumin ([4]; pharmaceutical-grade albumins versus native human serum and Sigma albumin): ~2 times
